From PubChem BioAssay AID328 (DTP/NCI, 2004) come the findings set out here.

The subject of this assay is BDF1 mice, P388 leukemia ip, median survival T/C. Briefly: NCI In Vivo Anticancer Drug Screen. Data for tumor model P388 Leukemia (intraperitoneal) in B6D2F1 (BDF1) mice. As to conditions: endpoint: median survival time, higher = longer survival. A digest of the protocol:
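Read-out is survival of treated animals expressed relative to the vehicle group, as a T/C ratio.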

[1] abbreviates: dose: 50.0 mg/kg/injection, schedule: Q01DX005 (ip), vehicle: saline with Tween-80.
The mark [2] stands for this setting: dose: 100.0 mg/kg/injection, schedule: Q01DX005 (ip), vehicle: saline with Tween-80.
[3] abbreviates: dose: 200.0 mg/kg/injection, schedule: Q01DX005 (ip), vehicle: saline with Tween-80.
[4] abbreviates: dose: 100.0 mg/kg/injection, schedule: Q04DX003 (ip), vehicle: saline with Tween-80.
The mark [5] stands for this setting: dose: 200.0 mg/kg/injection, schedule: Q04DX003 (ip), vehicle: saline with Tween-80.
The mark [6] stands for this setting: dose: 100.0 mg/kg/injection, schedule: Q01DX009 (ip), vehicle: saline with Tween-80.

Several values for one entry are separate records, joined by “and”; a condition that tells them apart may be missing. Equal entries are not always repeated. Inconclusive results and toxic doses are left out.

As for `CO[C@H]1Nc2c(ccc(C)c2O)C(=O)N2C=C(/C=C/C(N)=O)C[C@@H]12`, the T/C is, setting by setting: (dose: 0.02 mg/kg/injection, schedule: Q01DX010 (ip), vehicle: carboxymethylcellulose (CMC)) 230 % of control; (dose: 0.05 mg/kg/injection, schedule: Q01DX010 (ip), vehicle: carboxymethylcellulose (CMC)) 230 % of control; (dose: 0.08 mg/kg/injection, schedule: Q01DX009 (ip), vehicle: Klucel (hydroxypropylcellulose) (HPC)) 242 % of control; (dose: 0.08 mg/kg/injection, schedule: Q01DX009 (ip), vehicle: saline) 150 % of control; (dose: 0.1 mg/kg/injection, schedule: Q01DX010 (ip), vehicle: carboxymethylcellulose (CMC)) 210 % of control; (dose: 0.12 mg/kg/injection, schedule: Q01DX009 (ip), vehicle: saline with Tween-80) 168 % of control. Moreover, the T/C reads like this: (dose: 0.18 mg/kg/injection, schedule: Q01DX009 (ip), vehicle: Klucel (hydroxypropylcellulose) (HPC)) 238 % of control; (dose: 0.2 mg/kg/injection, schedule: Q01DX010 (ip), vehicle: carboxymethylcellulose (CMC)) 185 % of control; (dose: 0.25 mg/kg/injection, schedule: Q01DX010 (ip), vehicle: saline) 90 % of control; (dose: 151.0 micrograms/kg/injection, schedule: Q04DX003 (ip), vehicle: saline + alcohol) 186 % of control; (dose: 216.0 micrograms/kg/injection, schedule: Q04DX003 (ip), vehicle: saline + alcohol) 177 % of control and 189 % of control; (dose: 252.0 micrograms/kg/injection, schedule: Q04DX003 (ip), vehicle: saline + alcohol) 208 % of control. In addition, the T/C (dose: 360.0 micrograms/kg/injection, schedule: Q04DX003 (ip), vehicle: saline + alcohol) was 183 % of control and 196 % of control; the T/C (dose: 420.0 micrograms/kg/injection, schedule: Q04DX003 (ip), vehicle: saline + alcohol) was 215 % of control; the T/C (dose: 600.0 micrograms/kg/injection, schedule: Q04DX003 (ip), vehicle: saline + alcohol) was 94 % of control and 112 % of control.

As to `COC1C(O)=C2C(=O)OC(C)(O)/C=C/C=C\C=C/C=C/C(c3ccccc3)NC(=O)/C=C/C=C/C=C/C=C/C2(C)C1O` (configuration not stated), the T/C is 88 % of control (dose: 0.78 mg/kg/injection, schedule: Q01DX009 (ip), vehicle: Klucel (hydroxypropylcellulose) (HPC)); 107 % of control (dose: 1.56 mg/kg/injection, schedule: Q01DX009 (ip), vehicle: Klucel (hydroxypropylcellulose) (HPC)); 107 % of control (dose: 3.12 mg/kg/injection, schedule: Q01DX009 (ip), vehicle: Klucel (hydroxypropylcellulose) (HPC)).

Turning to `CC1(C)OC(C)(C)c2c1nnc(-c1ccccc1)[n+]2[O-]`, the T/C is, setting by setting: under setting [1], 91 % of control; under setting [2], 98 % of control; under setting [3], 88 % of control.

In the case of `CCCCNC1=C(N2CC2)C(=O)C(NCCCC)=C(N2CC2)C1=O`, the T/C is 107 % of control (dose: 1.25 mg/kg/injection, schedule: Q01DX009 (ip), vehicle: saline) and 87 % of control (dose: 5.0 mg/kg/injection, schedule: Q01DX009 (ip), vehicle: saline).

For `CC(=O)Nc1ccc2c3c(ccc([N+](=O)[O-])c13)CC2`, the T/C (dose: 100.0 mg/kg/injection, schedule: Q01DX009 (ip), vehicle: saline) was 90 % of control and the T/C (dose: 200.0 mg/kg/injection, schedule: Q01DX009 (ip), vehicle: saline) is 95 % of control.

Take `CCOn1nnc2cc(Cl)ccc21`: the T/C under setting [4] is 113 % of control; the T/C under setting [5] was 113 % of control; the T/C (dose: 400.0 mg/kg/injection, schedule: Q04DX003 (ip), vehicle: saline with Tween-80) is 106 % of control.

In the case of `CCOC(=O)C1(C(C)C)OC2(O)CCCCCN2C1=O` (configuration not stated), the T/C reads like this: (dose: 50.0 mg/kg/injection, schedule: Q01DX009 (ip), vehicle: saline with Tween-80) 95 % of control; under setting [6], 109 % of control; (dose: 200.0 mg/kg/injection, schedule: Q01DX009 (ip), vehicle: saline with Tween-80) 104 % of control.

With `OC(COC(c1ccccc1)(c1ccccc1)c1ccccc1)C(O)CC1SCCS1` (configuration not stated), the T/C runs as follows: (dose: 100.0 mg/kg/injection, schedule: Q01DX009 (ip), vehicle: saline sonified) 100 % of control; (dose: 100.0 mg/kg/injection, schedule: Q04DX003 (ip), vehicle: saline sonified) 112 % of control; (dose: 200.0 mg/kg/injection, schedule: Q01DX009 (ip), vehicle: saline sonified) 110 % of control; (dose: 200.0 mg/kg/injection, schedule: Q04DX003 (ip), vehicle: saline sonified) 100 % of control; (dose: 400.0 mg/kg/injection, schedule: Q01DX009 (ip), vehicle: saline sonified) 95 % of control; (dose: 400.0 mg/kg/injection, schedule: Q04DX003 (ip), vehicle: saline sonified) 108 % of control.

For the compound `c1ccc2c(c1)nnn1c3cnccc3nc21`, for the setting “dose: 6.25 mg/kg/injection, schedule: Q01DX009 (ip), vehicle: saline with Tween-80”, the T/C was 120 % of control.

Regarding `Cc1ccc(CC2c3ccccc3Nc3ccccc32)cc1`, the T/C is 86 % of control (dose: 100.0 mg/kg/injection, schedule: Q01DX001 (ip), vehicle: saline with Tween-80); 86 % of control (dose: 200.0 mg/kg/injection, schedule: Q01DX001 (ip), vehicle: saline with Tween-80); 88 % of control (dose: 400.0 mg/kg/injection, schedule: Q01DX001 (ip), vehicle: saline with Tween-80).

`O=c1c2ccccc2cc2ccccn12`: the T/C is, setting by setting: (dose: 100.0 mg/kg/injection, schedule: Q01DX009 (ip), vehicle: Klucel (hydroxypropylcellulose) (HPC)) 109 % of control; (dose: 100.0 mg/kg/injection, schedule: Q04DX003 (ip), vehicle: Klucel (hydroxypropylcellulose) (HPC)) 91 % of control; (dose: 200.0 mg/kg/injection, schedule: Q01DX009 (ip), vehicle: Klucel (hydroxypropylcellulose) (HPC)) 109 % of control; (dose: 200.0 mg/kg/injection, schedule: Q04DX003 (ip), vehicle: Klucel (hydroxypropylcellulose) (HPC)) 95 % of control.

As to `NC(=S)N/N=C/c1ccccn1`, the T/C (dose: 1.0 mg/kg/injection, schedule: Q01DX010 (ip), vehicle: carboxymethylcellulose (CMC)) is 110 % of control; the T/C (dose: 2.0 mg/kg/injection, schedule: Q01DX010 (ip), vehicle: carboxymethylcellulose (CMC)) is 110 % of control; the T/C (dose: 30.0 mg/kg/injection, schedule: Q01DX010 (ip), vehicle: saline) is 112 % of control.

For the compound `Cc1cnc(C#N)c(-n2ccnc2)n1`, the T/C runs as follows: (dose: 12.5 mg/kg/injection, schedule: Q01DX009 (ip), vehicle: water) 92 % of control; (dose: 25.0 mg/kg/injection, schedule: Q01DX009 (ip), vehicle: water) 100 % of control; (dose: 50.0 mg/kg/injection, schedule: Q01DX009 (ip), vehicle: water) 95 % of control; (dose: 100.0 mg/kg/injection, schedule: Q01DX009 (ip), vehicle: water) 100 % of control; (dose: 200.0 mg/kg/injection, schedule: Q01DX009 (ip), vehicle: water) 101 % of control.

As to `Cc1sc(N)c(C#N)c1C`, the T/C (dose: 50.0 mg/kg/injection, schedule: Q04DX003 (ip), vehicle: saline with Tween-80) was 100 % of control; the T/C under setting [4] is 120 % of control; the T/C under setting [5] was 100 % of control.

In the case of `CCCCCCC(=O)/C=C/c1cccc(Cl)c1`, the T/C is 88 % of control (dose: 100.0 mg/kg/injection, schedule: Q04DX003 (ip), vehicle: saline) and 100 % of control (dose: 400.0 mg/kg/injection, schedule: Q04DX003 (ip), vehicle: saline).

Consider `NC(=S)N/N=C/c1ccccc1N`, for which the T/C was 104 % of control (dose: 100.0 mg/kg/injection, schedule: Q01DX001 (ip), vehicle: Klucel (hydroxypropylcellulose) (HPC)); 104 % of control (dose: 200.0 mg/kg/injection, schedule: Q01DX001 (ip), vehicle: Klucel (hydroxypropylcellulose) (HPC)); 108 % of control (dose: 400.0 mg/kg/injection, schedule: Q01DX001 (ip), vehicle: Klucel (hydroxypropylcellulose) (HPC)).

As for `CCCCCCCCCCCCCCCC(=O)N(CCC#N)CCC#N`, the T/C reads like this: (dose: 66.0 mg/kg/injection, schedule: Q01DX009 (ip), vehicle: saline with Tween-80) 91 % of control; under setting [6], 91 % of control; (dose: 150.0 mg/kg/injection, schedule: Q01DX009 (ip), vehicle: saline with Tween-80) 108 % of control.

Take `CN(C)c1ccc(/C=C/c2cccc(/C=C/c3ccc(N(C)C)cc3)[n+]2[O-])cc1`: the T/C is 91 % of control under setting [1], 89 % of control under setting [2] and 93 % of control under setting [3].
